In patent US20220187282A1, “CARDIOMYOCYTE PROLIFERATION” (The Council of the Queensland Institute of Medical Research, priority 2019, published 2022):
Like-named read-outs stand apart in the source and are kept apart here.

Columns and labels:
Assay type in all cases: biochemical
kinases [1] = target: kinases (Homo sapiens, UniProt Q13163); settings: MAP2K5 (MEK5) FRET-Lantha SP; Test Conc(μM) 1
kinases [2] = target: kinases (Homo sapiens, UniProt Q9UBS0); settings: RPS6KB2 FRET-Z-Lyte SP; Test Conc(μM):ATP Conc(μM) 1:50
kinases [3] = target: kinases (Homo sapiens, UniProt P36888); settings: FLT3 Hu Phos FRET-Z-Lyte SP; Test Conc(μM):ATP Conc(μM) 1:500
kinases [4] = target: kinases (Homo sapiens, UniProt Q9BYP7); settings: WNK3 FRET-Lantha SP; Test Conc(μM) 1
kinases [5] = target: kinases (Homo sapiens, UniProt Q92630); settings: DYRK2 FRET-Lantha SP; Test Conc(μM) 1
kinases [6] = target: kinases (Homo sapiens, UniProt O00443); settings: PIK3C2A FRET-Adapta SP; Test Conc(μM):ATP Conc(μM) 1:25
kinases [7] = target: kinases (Homo sapiens, UniProt Q9H4B4); settings: PLK3 FRET-Z-Lyte SP; Test Conc(μM):ATP Conc(μM) 1:50
kinases [8] = target: kinases (Homo sapiens, UniProt Q92918); settings: MAP4K1 (HPK1) FRET-Lantha SP; Test Conc(μM) 1
kinases [9] = target: kinases (Homo sapiens, UniProt Q00537); settings: CDK17/cyclin Y FRET-Z-Lyte SP; Test Conc(μM):ATP Conc(μM) 1:50
kinases [10] = target: kinases (Homo sapiens, UniProt P17948); settings: FLT1 (VEGFR1) *Mn* Z-Lyte SP; Test Conc(μM):ATP Conc(μM) 1:150
kinases [11] = target: kinases (Homo sapiens, UniProt P35916); settings: FLT4 (VEGFR3) *Mn* Z-Lyte SP; Test Conc(μM):ATP Conc(μM) 1:5
kinases [12] = target: kinases (Homo sapiens, UniProt P27361); settings: MAPK3 (ERK1) FRET-Z-Lyte SP; Test Conc(μM):ATP Conc(μM) 1:50
kinases [13] = target: kinases (Homo sapiens, UniProt Q9UL54); settings: TAOK2 (TAO1) FRET-Z-Lyte SP
kinases [14] = target: kinases (Homo sapiens, UniProt Q96GX5); settings: MASTL FRET-Lantha SP; Test Conc(μM) 1
kinases [15] = target: kinases (Homo sapiens, UniProt Q96RG2); settings: PASK FRET-Z-Lyte SP; Test Conc(μM):ATP Conc(μM) 1:50
kinases [16] = target: kinases (Homo sapiens, UniProt Q5S007)
kinases [17] = target: kinases (Homo sapiens, UniProt Q04912); settings: MST1R (RON) FRET-Z-Lyte SP; Test Conc(μM):ATP Conc(μM) 1:10
kinases [18] = target: kinases (Homo sapiens, UniProt Q32MK0); settings: MYLK3 Hu Bind FRET-Lantha SP; Test Conc(μM) 1
kinases [19] = target: kinases (Homo sapiens, UniProt O00506); settings: STK25 (YSK1) FRET-Z-Lyte SP; Test Conc(μM):ATP Conc(μM) 1:75
kinases [20] = target: kinases (Homo sapiens, UniProt Q00535)
kinases [21] = target: kinases (Homo sapiens, UniProt Q02779); settings: MAP3K10 (MLK2) FRET-Lantha SP; Test Conc(μM) 1
kinases [22] = target: kinases (Homo sapiens, UniProt Q9HAZ1); settings: CLK4 FRET-Lantha SP; Test Conc(μM) 1
kinases [23] = target: kinases (Homo sapiens, UniProt P32298); settings: GRK4 FRET-Z-Lyte SP; Test Conc(μM):ATP Conc(μM) 1:10
kinases [24] = target: kinases (Homo sapiens, UniProt Q05397); settings: PTK2 (FAK) FRET-Z-Lyte SP; Test Conc(μM):ATP Conc(μM) 1:50
kinases [25] = target: kinases (Homo sapiens, UniProt P16234); settings: PDGFRA *Mn* FRET-Z-Lyte SP; Test Conc(μM):ATP Conc(μM) 1:10
kinases [26] = target: kinases (Homo sapiens, UniProt P51955); settings: NEK2 FRET-Z-Lyte SP; Test Conc(μM):ATP Conc(μM) 1:150
kinases [27] = target: kinases (Homo sapiens, UniProt Q9UEE5); settings: STK17A (DRAK1) FRET-Lantha SP; Test Conc(μM) 1
kinases [28] = target: kinases (Homo sapiens, UniProt Q16620); settings: NTRK2 (TRKB) *Mn* Z-Lyte SP; Test Conc(μM):ATP Conc(μM) 1:25
[29] = LRRK2 FL FRET-Adapta SP, Test Conc(μM):ATP Conc(μM) 1:50
[30] = LRRK2 Hu Phos FRET-Adapta SP, Test Conc(μM):ATP Conc(μM) 1:75
[31] = CDK5 (Inactive) FRET-Lantha SP, Test Conc(μM) 1
[32] = CDK5/p25 FRET-Z-Lyte SP, Test Conc(μM):ATP Conc(μM) 1:10
[33] = CDK5/p35 FRET-Z-Lyte SP, Test Conc(μM):ATP Conc(μM) 1:10

kinases (Homo sapiens, UniProt Q00535), sequence (Q00535 whole entry): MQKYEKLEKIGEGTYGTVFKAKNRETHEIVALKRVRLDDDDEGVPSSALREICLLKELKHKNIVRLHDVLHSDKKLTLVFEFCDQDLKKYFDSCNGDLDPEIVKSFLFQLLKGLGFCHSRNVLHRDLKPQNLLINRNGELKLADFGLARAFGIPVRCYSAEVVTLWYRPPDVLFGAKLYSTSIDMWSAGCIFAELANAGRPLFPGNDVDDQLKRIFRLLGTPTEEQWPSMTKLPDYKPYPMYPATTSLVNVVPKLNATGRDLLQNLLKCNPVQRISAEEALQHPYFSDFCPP
kinases (Homo sapiens, UniProt Q5S007), sequence (Q5S007 whole entry): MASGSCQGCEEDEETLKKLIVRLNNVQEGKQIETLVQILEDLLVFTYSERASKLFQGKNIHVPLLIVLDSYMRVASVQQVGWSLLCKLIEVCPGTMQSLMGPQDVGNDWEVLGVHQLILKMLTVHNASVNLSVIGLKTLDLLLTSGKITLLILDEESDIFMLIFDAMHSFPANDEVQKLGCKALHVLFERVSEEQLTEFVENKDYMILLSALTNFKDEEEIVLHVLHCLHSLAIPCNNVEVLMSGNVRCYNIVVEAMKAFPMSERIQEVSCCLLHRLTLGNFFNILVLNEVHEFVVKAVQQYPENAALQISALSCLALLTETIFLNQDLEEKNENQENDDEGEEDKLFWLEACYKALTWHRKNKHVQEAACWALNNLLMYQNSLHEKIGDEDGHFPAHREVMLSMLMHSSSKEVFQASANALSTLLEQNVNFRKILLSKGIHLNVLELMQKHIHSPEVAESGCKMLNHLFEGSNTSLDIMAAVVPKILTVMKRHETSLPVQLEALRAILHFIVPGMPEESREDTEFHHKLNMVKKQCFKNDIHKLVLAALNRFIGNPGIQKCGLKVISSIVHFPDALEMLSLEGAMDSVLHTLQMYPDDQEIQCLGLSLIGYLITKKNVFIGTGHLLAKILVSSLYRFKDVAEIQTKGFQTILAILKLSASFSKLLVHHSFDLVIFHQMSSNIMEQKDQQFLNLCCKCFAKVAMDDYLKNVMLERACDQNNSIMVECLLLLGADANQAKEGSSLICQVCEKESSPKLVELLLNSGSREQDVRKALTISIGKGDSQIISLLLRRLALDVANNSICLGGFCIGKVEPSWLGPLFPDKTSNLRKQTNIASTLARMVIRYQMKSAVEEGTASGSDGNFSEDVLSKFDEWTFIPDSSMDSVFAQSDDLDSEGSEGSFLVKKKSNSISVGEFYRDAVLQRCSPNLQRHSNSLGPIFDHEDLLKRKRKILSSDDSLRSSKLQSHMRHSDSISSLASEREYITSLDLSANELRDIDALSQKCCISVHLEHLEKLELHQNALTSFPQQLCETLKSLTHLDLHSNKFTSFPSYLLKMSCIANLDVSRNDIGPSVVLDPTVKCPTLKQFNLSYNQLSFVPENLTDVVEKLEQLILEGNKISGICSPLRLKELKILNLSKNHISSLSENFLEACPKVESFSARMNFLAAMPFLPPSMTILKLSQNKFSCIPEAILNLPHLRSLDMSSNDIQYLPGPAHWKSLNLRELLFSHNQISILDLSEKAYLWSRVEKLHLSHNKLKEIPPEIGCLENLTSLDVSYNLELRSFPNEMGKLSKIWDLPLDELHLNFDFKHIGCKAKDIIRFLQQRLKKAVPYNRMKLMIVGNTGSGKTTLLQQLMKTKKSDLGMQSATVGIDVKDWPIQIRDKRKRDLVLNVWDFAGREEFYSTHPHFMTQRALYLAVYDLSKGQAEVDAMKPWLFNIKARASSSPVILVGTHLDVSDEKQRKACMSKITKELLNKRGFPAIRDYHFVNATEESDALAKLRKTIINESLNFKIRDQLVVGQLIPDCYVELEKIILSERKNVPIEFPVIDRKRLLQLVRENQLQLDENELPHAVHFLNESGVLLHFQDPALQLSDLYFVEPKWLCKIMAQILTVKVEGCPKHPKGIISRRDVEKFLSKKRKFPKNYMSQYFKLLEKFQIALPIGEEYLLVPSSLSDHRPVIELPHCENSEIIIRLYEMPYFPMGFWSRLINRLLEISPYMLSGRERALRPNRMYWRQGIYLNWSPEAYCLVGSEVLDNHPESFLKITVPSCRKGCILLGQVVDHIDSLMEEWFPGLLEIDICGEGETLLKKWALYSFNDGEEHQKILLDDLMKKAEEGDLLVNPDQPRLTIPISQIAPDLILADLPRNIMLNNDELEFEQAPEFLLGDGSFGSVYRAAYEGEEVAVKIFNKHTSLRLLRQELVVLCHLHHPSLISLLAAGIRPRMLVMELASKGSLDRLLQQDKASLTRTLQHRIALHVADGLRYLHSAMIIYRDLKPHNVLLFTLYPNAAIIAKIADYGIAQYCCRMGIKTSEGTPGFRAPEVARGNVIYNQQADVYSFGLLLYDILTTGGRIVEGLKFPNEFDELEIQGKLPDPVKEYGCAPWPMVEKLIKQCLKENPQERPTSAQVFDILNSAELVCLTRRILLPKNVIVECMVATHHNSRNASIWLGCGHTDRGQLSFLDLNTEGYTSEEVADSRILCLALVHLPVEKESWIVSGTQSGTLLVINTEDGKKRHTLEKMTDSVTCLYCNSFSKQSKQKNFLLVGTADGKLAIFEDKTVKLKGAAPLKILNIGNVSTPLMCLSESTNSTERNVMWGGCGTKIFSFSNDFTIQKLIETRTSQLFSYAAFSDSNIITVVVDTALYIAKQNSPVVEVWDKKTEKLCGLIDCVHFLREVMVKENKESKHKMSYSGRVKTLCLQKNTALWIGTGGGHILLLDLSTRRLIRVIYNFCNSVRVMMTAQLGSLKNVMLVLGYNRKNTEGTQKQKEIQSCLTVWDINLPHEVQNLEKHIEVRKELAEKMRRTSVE
kinases (Homo sapiens, UniProt P35916), sequence (P35916 25-1363): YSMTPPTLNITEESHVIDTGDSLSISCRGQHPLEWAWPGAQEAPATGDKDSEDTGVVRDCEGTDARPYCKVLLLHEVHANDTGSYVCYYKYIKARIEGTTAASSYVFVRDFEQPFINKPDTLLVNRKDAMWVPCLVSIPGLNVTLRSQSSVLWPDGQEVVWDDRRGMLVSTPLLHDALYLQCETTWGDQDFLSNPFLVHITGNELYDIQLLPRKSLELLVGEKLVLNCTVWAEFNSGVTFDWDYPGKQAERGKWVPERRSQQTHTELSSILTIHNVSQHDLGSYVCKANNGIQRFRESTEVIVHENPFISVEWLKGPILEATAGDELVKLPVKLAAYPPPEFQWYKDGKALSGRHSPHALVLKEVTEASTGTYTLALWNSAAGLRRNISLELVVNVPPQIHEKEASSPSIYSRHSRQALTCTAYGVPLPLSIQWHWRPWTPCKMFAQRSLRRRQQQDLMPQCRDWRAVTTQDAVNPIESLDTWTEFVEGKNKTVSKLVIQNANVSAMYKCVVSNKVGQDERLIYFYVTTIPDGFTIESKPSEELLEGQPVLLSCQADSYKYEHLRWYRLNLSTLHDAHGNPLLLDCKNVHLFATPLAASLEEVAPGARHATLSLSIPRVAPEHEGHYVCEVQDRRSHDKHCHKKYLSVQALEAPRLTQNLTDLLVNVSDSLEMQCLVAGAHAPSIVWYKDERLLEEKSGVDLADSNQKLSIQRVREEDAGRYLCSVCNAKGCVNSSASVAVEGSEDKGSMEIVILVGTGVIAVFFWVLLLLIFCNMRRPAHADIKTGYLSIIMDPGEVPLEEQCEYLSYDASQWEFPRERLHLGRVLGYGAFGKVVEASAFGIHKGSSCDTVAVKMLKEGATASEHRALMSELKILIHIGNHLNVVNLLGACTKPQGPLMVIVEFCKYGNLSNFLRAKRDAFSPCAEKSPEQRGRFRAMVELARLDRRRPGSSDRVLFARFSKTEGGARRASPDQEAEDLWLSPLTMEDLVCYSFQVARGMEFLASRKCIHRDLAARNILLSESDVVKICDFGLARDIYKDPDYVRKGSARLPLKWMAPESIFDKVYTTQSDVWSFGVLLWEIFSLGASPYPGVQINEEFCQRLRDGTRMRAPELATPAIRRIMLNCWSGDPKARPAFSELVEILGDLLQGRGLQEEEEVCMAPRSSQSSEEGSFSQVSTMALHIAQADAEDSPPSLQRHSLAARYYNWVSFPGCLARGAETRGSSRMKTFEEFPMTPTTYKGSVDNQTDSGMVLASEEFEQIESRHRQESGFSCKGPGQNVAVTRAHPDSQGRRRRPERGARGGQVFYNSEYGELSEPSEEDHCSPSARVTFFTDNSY
kinases (Homo sapiens, UniProt Q00537), sequence (Q00537 whole entry): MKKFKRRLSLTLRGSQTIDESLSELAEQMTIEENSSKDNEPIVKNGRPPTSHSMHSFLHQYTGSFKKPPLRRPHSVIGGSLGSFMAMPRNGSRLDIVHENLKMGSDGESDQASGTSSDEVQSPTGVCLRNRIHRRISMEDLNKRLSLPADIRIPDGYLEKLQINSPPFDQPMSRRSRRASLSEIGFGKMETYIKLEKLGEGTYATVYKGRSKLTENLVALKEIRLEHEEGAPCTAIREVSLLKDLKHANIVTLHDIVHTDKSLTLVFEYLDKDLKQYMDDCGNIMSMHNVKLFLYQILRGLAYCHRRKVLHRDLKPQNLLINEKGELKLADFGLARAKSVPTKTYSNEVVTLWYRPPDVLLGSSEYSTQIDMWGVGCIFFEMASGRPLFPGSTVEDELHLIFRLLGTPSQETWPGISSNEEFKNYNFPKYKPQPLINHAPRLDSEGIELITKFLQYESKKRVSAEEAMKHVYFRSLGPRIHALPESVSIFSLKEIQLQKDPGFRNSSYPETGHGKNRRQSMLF
kinases (Homo sapiens, UniProt P27361), sequence (P27361 whole entry): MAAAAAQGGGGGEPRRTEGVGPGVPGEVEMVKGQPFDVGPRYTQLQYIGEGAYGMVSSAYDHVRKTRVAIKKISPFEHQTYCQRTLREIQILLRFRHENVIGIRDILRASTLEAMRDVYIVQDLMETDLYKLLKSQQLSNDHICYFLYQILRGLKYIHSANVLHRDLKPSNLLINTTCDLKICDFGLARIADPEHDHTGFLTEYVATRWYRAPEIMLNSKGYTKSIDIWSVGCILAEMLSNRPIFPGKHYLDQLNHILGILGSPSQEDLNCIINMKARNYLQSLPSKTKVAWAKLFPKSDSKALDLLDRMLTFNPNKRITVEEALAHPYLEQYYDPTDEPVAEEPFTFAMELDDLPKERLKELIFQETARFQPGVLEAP

Cc1ccc(NC(=O)c2ccnc(N3CCOCC3)c2)cc1Nc1ccnc(N2CC(C)OC(C)C2)n1 (centres unmarked) [compound 3]
Mean Inhib (%) (kinases [1]): −1.6%
Mean Inhib (%) (kinases [2]): 7.8%
Mean Inhib (%) (kinases [3]): −9.3%
Mean Inhib (%) (kinases [4]): 5.3%
Mean Inhib (%) (kinases [5]): −0.5%
Mean Inhib (%) (kinases [6]): 1.7%
Mean Inhib (%) (kinases [7]): 5.8%
Mean Inhib (%) (kinases [8]): −1.6%
Mean Inhib (%) (kinases [9]): 0.9%
Mean Inhib (%) (kinases [10]): 11.5%
Mean Inhib (%) (kinases [11]): 2.8%
Mean Inhib (%) (kinases [12]): 5.1%
Mean Inhib (%) (kinases [13]; Test Conc(μM):ATP Conc(μM) 1:300): −3.6%
Mean Inhib (%) (kinases [14]): 2.3%
Mean Inhib (%) (kinases [15]): 13.7%
Mean Inhib (%) (kinases [16]; [29]): 0.5%
Mean Inhib (%) (kinases [16]; [30]): 13.2%
Mean Inhib (%) (kinases [17]): −8.2%
Mean Inhib (%) (kinases [18]): 4.5%
Mean Inhib (%) (kinases [19]): 8.8%
Mean Inhib (%) (kinases [20]; [31]): 5.2%
Mean Inhib (%) (kinases [20]; [32]): 2.0%
Mean Inhib (%) (kinases [20]; [33]): 0.9%
Mean Inhib (%) (kinases [21]): 0.6%
Mean Inhib (%) (kinases [22]): 6.4%
Mean Inhib (%) (kinases [23]): 0.0%
Mean Inhib (%) (kinases [24]): 13.1%
Mean Inhib (%) (kinases [25]): 2.4%
Mean Inhib (%) (kinases [26]): −0.8%
Mean Inhib (%) (kinases [27]): 4.6%
Mean Inhib (%) (kinases [28]): 1.9%

Cc1cc(Oc2ccnc(Nc3ccc(S(N)(=O)=O)cc3)c2)c(-c2ccccn2)nc1C [compound 65]
Mean Inhib (%) (kinases [1]): 3.4%
Mean Inhib (%) (kinases [2]): 2.1%
Mean Inhib (%) (kinases [3]): 8.9%
Mean Inhib (%) (kinases [4]): −2.5%
Mean Inhib (%) (kinases [5]): 9.6%
Mean Inhib (%) (kinases [6]): 8.7%
Mean Inhib (%) (kinases [7]): −4.9%
Mean Inhib (%) (kinases [8]): 11.3%
Mean Inhib (%) (kinases [9]): 9.6%
Mean Inhib (%) (kinases [10]): 2.7%
Mean Inhib (%) (kinases [11]): 2.0%
Mean Inhib (%) (kinases [12]): 1.1%
Mean Inhib (%) (kinases [13]; Test Conc(μM):ATP Conc(μM) 0.25): 13.7%
Mean Inhib (%) (kinases [14]): 13.5%
Mean Inhib (%) (kinases [15]): 3.8%
Mean Inhib (%) (kinases [16]; [29]): 3.0%
Mean Inhib (%) (kinases [16]; [30]): 6.1%
Mean Inhib (%) (kinases [17]): 5.3%
Mean Inhib (%) (kinases [18]): 0.8%
Mean Inhib (%) (kinases [19]): 2.0%
Mean Inhib (%) (kinases [20]; [31]): 17.2%
Mean Inhib (%) (kinases [20]; [32]): 8.0%
Mean Inhib (%) (kinases [20]; [33]): 2.5%
Mean Inhib (%) (kinases [21]): 2.7%
Mean Inhib (%) (kinases [22]): 0.4%
Mean Inhib (%) (kinases [23]): 16.3%
Mean Inhib (%) (kinases [24]): 5.7%
Mean Inhib (%) (kinases [25]): 7.6%
Mean Inhib (%) (kinases [26]): 12.8%
Mean Inhib (%) (kinases [27]): −1.2%
Mean Inhib (%) (kinases [28]): 0.7%
